This is an account of results in ChEMBL document CHEMBL4840311, “Discovery of novel nitrogenous heterocyclic-containing quinoxaline-1,4-di-N-oxides as potent activator of autophagy in M.tb-infected macrophages” (Eur J Med Chem, 2021).

In brackets after ≈: the same amount, converted by molar mass.

Series [1] deals with Mycobacterium tuberculosis. Nature of the series: Antimycobacterial activity against Mycobacterium tuberculosis H37Rv ATCC 27294 assessed as inhibition of bacterial growth measured after 5 days by microplate alamar blue assay. The conditions noted are these: H37Rv ATCC 27294, 120 h, time 5 day. It counts as functional. Background: Alamar Blue is a resazurin reagent that responds to reducing activity.

A further series concerns Vero. The experiment in a line: Cytotoxicity against African green monkey Vero cells assessed as reduction in cell viability measured after 72 hrs by MTT assay. It counts as cell-based. The following applies: Chlorocebus sabaeus. (Formazan colour is commonly taken as a measure of viable cells.)
Series [2] can be described thus: Selectivity index, ratio of IC50 for African green monkey Vero cells measured after 72 hrs by MTT assay to MIC for antimycobacterial activity against Mycobacterium tuberculosis H37Rv ATCC 27294 assessed as inhibition of bacterial growth measured after 5 days by microplate alamar blue assay. It counts as toxicity. The conditions noted are these: read-out: Selectivity Index.

The next series relates to J774.A1. The experiment in a line: Cytotoxicity against mouse J774.A1 cells assessed as reduction in cell viability measured after 72 hrs by MTT assay. It counts as cell-based. The conditions noted are these: J774.A1, 72 h.
Series [3] deals with Mycobacterium tuberculosis. Nature of the series: Antimycobacterial activity against Mycobacterium tuberculosis H37Rv infected in mouse J774.A1 cells assessed as log reduction of bacterial growth at 1X to 40X MIC measured after 4 days by visual colony counting analysis. The series is classed as functional. The conditions noted are these: time 4 day.
Series [4] concerns Mycobacterium tuberculosis. Nature of the series: Antimycobacterial activity against Mycobacterium tuberculosis H37Rv infected in mouse J774.A1 cells assessed as log reduction of bacterial growth at 1X MIC measured after 1 days by visual colony counting analysis. The series is classed as functional. The following applies: time 1 day.
Series [5] deals with Mycobacterium tuberculosis. Nature of the series: Antimycobacterial activity against Mycobacterium tuberculosis H37Rv infected in mouse J774.A1 cells assessed as log reduction of bacterial growth at 10X MIC measured after 1 days by visual colony counting analysis. The series is classed as functional. The conditions noted are these: time 1 day.

For `CC(=O)c1c(C)[n+]([O-])c2cc(N3CCNCC3)ccc2[n+]1[O-]`, the MIC (commonly the lowest concentration found to suppress growth) in series [1] was 64 µg/mL (≈ 212 µM).
`CC(=O)c1c(C)[n+]([O-])c2cc(-n3ccnc3)c(F)cc2[n+]1[O-]`: the MIC in series [1] worked out at 0.5 µg/mL (≈ 1.65 µM). For the same compound, the concentration for half-maximal inhibition (IC50) (usually the concentration that inhibits the measured activity by half) was 95.7 µM in the series with Vero and 77.7 µM in the series on J774.A1. The selectivity ratio at 72 hrs in series [2] was 46.4.
Turning to `CC(=O)c1c(C(F)(F)F)[n+]([O-])c2cc(-n3ccnc3)c(F)cc2[n+]1[O-]`, in series [1], the MIC came out at 0.25 µg/mL (≈ 0.702 µM). Moreover, in the series on Vero, the IC50 was found to be 46.5 µM. The selectivity ratio at 72 hrs in series [2] worked out at 66.2.
In the case of `Cc1c(C(=O)OC(C)C)[n+]([O-])c2cc(F)c(-n3ccnc3)cc2[n+]1[O-]`, in series [1], the MIC is 2 µg/mL (≈ 5.78 µM). Also, the 50% inhibitory concentration (IC50) in the series with Vero turned out to be 112 µM; with J774.A1, 77.7 µM. In addition, in series [2], the selectivity ratio at 72 hrs was 19.5.
Regarding `Cc1c(C(=O)OCc2ccccc2)[n+]([O-])c2cc(F)c(-n3ccnc3)cc2[n+]1[O-]`, in series [1], the MIC came out at 0.25 µg/mL (≈ 0.634 µM). Besides, the IC50 is 107 µM with Vero and 77.7 µM in the series on J774.A1. Moreover, the selectivity ratio at 72 hrs in series [2] is 169. Further, the entries for the “log(activity)” value in series [3], in series [4] and in series [5] were 2.15, 0.04 and 0.18, respectively.
On to `CCOC(=O)c1c(C)[n+]([O-])c2cc(N3CCCCC3)c(F)cc2[n+]1[O-]`, for which the MIC in series [1] worked out at 32 µg/mL (≈ 91.6 µM).
Still for that read-out and setting: the figure for `Cc1c(C(=O)OC(C)C)[n+]([O-])c2cc(F)c(F)cc2[n+]1[O-]` is 16 µg/mL (≈ 53.6 µM); for `CC(=O)c1c(C)[n+]([O-])c2cc(N3CCNCC3)c(F)cc2[n+]1[O-]` it is 4 µg/mL (≈ 12.5 µM).
Take `CCOC(=O)c1c(C)[n+]([O-])c2cc(N3CCN(C)CC3)c(F)cc2[n+]1[O-]`: in series [1], the MIC was 8 µg/mL (≈ 22 µM).
Still for that read-out and setting: the figure for `CCOC(=O)c1c(C)[n+]([O-])c2cc(N3CCOCC3)c(F)cc2[n+]1[O-]` is 64 µg/mL (≈ 182 µM); for `CCOC(=O)c1c(C)[n+]([O-])c2cc(N3CCNCC3)c(F)cc2[n+]1[O-]` it is 4 µg/mL (≈ 11.4 µM).
On the same count and under the same terms, for `CC(=O)c1c(C)[n+]([O-])c2ccccc2[n+]1[O-]` [MEQUINDOX] the value was 8 µg/mL (≈ 36.7 µM).
As for `CCOC(=O)c1c(C)[n+]([O-])c2cc(-n3ccnc3)c(F)cc2[n+]1[O-]`, in series [1], the minimum inhibitory concentration (MIC) stood at 0.25 µg/mL (≈ 0.752 µM). For the same compound, the concentration for half-maximal inhibition (IC50) in the series with Vero worked out at 129 µM; in the series with J774.A1 it was 77.7 µM. Moreover, the selectivity ratio at 72 hrs in series [2] came out at 172.
With `Cc1c(C(=O)CC(C)C)[n+]([O-])c2ccccc2[n+]1[O-]`, the MIC in series [1] was 64 µg/mL (≈ 246 µM).
`CCOC(=O)c1c(C)[n+]([O-])c2cc(F)c(F)cc2[n+]1[O-]`: the minimum inhibitory concentration (MIC) in series [1] amounted to 1 µg/mL (≈ 3.52 µM). Moreover, the IC50 with Vero came to 30.6 µM. For the same compound, in series [2], the selectivity ratio at 72 hrs was determined as 8.7.
